How the values were obtained:
[1] = Lipophilicity measurement (Log D); type: physicochemical; conditions: pH 7.4; octanol and phosphate buffer (pH7.4); read-out: Log D7.4
Experimental: Lipophilicity measurement
Log D was determined by partitioning each compound between an octanol and phosphate buffer […]
each layer using HPLC with ultraviolet (UV) detection.
Assays for P-glycoprotein-mediated transcellular transport of compounds LLC-GA5-COL300 cells expressing human P-glycoprotein were seeded at a density of 4.5 × 10^5 cells/cm2 onto polycarbonate membrane filters of 12-well cell culture insert plates and cultured at 37°C in a humidified incubator containing 5% CO2 for 3 days. After each cell monolayer was pre-incubated at 37°C for 20 min in Hank’s balanced salt solution containing 10 mM HEPES (HBSS buffer), transcellular transport experiments were initiated by adding the test compound solution to the apical or basal side of the cell culture inserts. HBSS buffer was sampled from the compartment opposite of that spiked with the test compounds at 0.5, 1, 1.5 and 2 h after initiation of the experiments, and concentrations of the test compounds were determined using LC-MS/MS. The apparent permeability coefficient (Papp) of the test compounds was calculated using the following equation:
Papp= dQ/dt / C0 / A Eq. 1, where dQ/dt represents the rate of permeation of the compounds, C0 is the initial concentration of the test compounds ([…]), and A is the area of the monolayer. The efflux ratio (ER) was defined as […]

[2] = test system: Serotonin 5-HT1B; test: Off-target binding (Cerep); design: unit of the concentration uncertain
Description: (§1) Off-target binding of compounds assessed using an in-house assay (M4) and a commercial battery (all
(§2) others) (Cerep, Celle L'Evescault, France).

[3] = test system: Imidazoline I2; test: Off-target binding (Cerep); design: unit of the concentration uncertain
Description: as §1, §2

[4] = test system: Opioid kappa (KOP); test: Off-target binding (Cerep); design: unit of the concentration uncertain
Description: as §1, §2

[5] = test system: Serotonin 5-HT1D; test: Off-target binding (Cerep); design: unit of the concentration uncertain
Description: as §1, §2

[6] = test system: Glutamate Kainate; test: Off-target binding (Cerep); design: unit of the concentration uncertain
Description: as §1, §2

[7] = molecular target: T1, H3R (Rattus norvegicus, UniProt Q9QYN8); test: PET imaging of rat brains; type: in vivo; conditions: for cerebellar SUV at 15 min after radioligand injection: mean ± S.D.
T1 construct: from tissue; host or cells: brain of living Sprague-Dawley rats
T1 sequence (Q9QYN8 whole entry): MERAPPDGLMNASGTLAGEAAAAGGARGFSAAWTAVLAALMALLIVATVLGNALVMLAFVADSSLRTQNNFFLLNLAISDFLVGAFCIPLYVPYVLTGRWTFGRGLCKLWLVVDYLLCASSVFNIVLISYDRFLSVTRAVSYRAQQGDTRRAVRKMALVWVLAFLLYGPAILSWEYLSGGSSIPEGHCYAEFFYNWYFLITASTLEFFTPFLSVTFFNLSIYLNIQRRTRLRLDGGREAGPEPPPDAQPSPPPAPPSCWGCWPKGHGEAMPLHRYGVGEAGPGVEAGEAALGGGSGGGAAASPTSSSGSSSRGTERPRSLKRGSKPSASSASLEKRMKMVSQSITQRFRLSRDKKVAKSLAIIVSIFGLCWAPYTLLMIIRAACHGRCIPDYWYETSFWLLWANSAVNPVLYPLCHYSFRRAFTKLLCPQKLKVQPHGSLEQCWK
Experimental: Six-week-old male Sprague-Dawley rats were purchased from Japan SLC (Shizuoka, Japan). PET scans were performed using a microPET Focus 220 small-animal scanner (Siemens Medical Solutions USA, Knoxville, TN). The rats were anesthetized with 1.5–2 % isoflurane during the imaging session, while their heart rate and blood oxygen saturation were monitored by pulse oximeter (CANL-425SVA; Med Associates, St. Albans, VT). Body temperature was kept at 37 °C with a heating pad (BWT-100; Bio Research Center, Aichi, Japan). Following the transmission scans for attenuation correction using a ^68Ge-^68Ga point source, emission scans were performed for 90 min in 3D list-mode with an energy window of 350–750 keV, immediately after the intravenous injection of each radioligand. Mean ± S.D. of the injected radioactivity of [^11C]TASP0410457, [^11C]TASP0434988, and [^11C]TASP0390136 was 119 ± 26 MBq, 132 ± 34 MBq, and 124 ± 17 MBq, respectively (n = 3–5). Mean ± S.D. of the mass doses of [^11C]TASP0410457, [^11C]TASP0434988, and [^11C]TASP0390136 was 2.4 ± 1.2 μg/kg, 1.9 ± 0.4 μg/kg, and 4.2 ± 1.6 μg/kg, respectively (n = 3–5).
To assess the specificity of radioligand binding, thioperamide was injected intravenously at a dose of 10 mg/kg at 30 s before the injection of each radioligand.
All list-mode data were sorted into 3D sinograms, which were then Fourier rebinned into 2D sinograms (frames: 1 min × 4, 2 min × 8 and 5 min × 14). Images were reconstructed using 2D-filtered back-projection with a 0.5-mm Hanning filter.
PET image and magnetic resonance imaging (MRI) template were co-registered using PMOD software (PMOD version 3.206; Zurich, Switzerland) according to the following procedure as in our previous works: Outline of the whole brain and positions of eyes in PET images at an early phase of the scan were initially matched to those in MRI images, and then further translations and rotations of PET images were manually performed for fine alignments. Finally, parameters for the co-registration were applied to the entire dynamic PET data. Regions of interest (ROIs) were placed on the striatum, hippocampus, and cerebellum using PMOD software with reference to the MRI template as described elsewhere. The tissue time-activity curves (TACs) for these ROIs were generated by calculating the SUV for each time frame as follows: SUV=radioactivityBq/g×bodyweightg/injectedradiotracerdoseBq
The binding potentials relative to the non-displaceable uptake (BPND) in the striatum and hippocampus were estimated using the simplified reference tissue model (SRTM) with PMOD software using the cerebellum as a reference region, as the rat cerebellum is devoid of H3R [26].

[8] = molecular target: T2, H3Rs (Macaca mulatta, UniProt Q865E1); test: PET in conscious rhesus monkey; type: in vivo, rhesus monkey (Macaca mulatta)
T2 construct: from tissue; host or cells: brain of living rhesus monkeys
T2 sequence (Q865E1 1-445): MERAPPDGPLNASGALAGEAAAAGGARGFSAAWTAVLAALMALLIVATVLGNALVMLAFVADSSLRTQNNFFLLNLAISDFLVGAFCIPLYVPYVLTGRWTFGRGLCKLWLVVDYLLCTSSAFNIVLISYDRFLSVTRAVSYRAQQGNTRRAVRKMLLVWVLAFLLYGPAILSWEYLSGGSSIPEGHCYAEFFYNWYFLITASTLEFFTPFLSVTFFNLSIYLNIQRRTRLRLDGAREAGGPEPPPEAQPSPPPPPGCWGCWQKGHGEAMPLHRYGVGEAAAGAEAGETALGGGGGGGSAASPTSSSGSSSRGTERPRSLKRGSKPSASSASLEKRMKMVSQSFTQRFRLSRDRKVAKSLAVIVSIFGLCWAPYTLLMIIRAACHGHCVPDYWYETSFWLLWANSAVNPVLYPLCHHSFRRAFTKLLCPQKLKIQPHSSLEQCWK
Experimental: A male rhesus monkey (Macaca mulatta, weighing 6–7 kg) was used for a comparative PET analysis of [^11C]TASP0410457 and [^11C]TASP0434988. PET scans were performed using a high-resolution SHR-7700 animal PET camera (Hamamatsu Photonics, Hamamatsu, Japan). Following transmission scans for attenuation correction using a ^68Ge-^68Ga point source, emission scans were performed on a conscious monkey as described previously, in 3D acquisition mode (frames: 10 s × 12, 30 s × 6, 1 min × 5, 2 min × 5 and 5 min × 14) for 90 min after the intravenous injection of [^11C]TASP0410457 (169–176 MBq) or [^11C]TASP0434988 (173–188 MBq). Briefly, the monkey was immobilized by joining the acrylic cap on the monkey head with the fixation device during PET scans. To assess a homologous competition for the target binding sites, unlabeled TASP0410457 or TASP0434988 was injected intravenously at a dose of 1 mg/kg at 30 s before injection of the corresponding radioligand.
Emission scan images were reconstructed using a 4.0-mm Colsher filter. ROIs were placed on the anterior cingulate cortex, striatum, thalamus, hippocampus, cerebellum, frontal cortex, temporal cortex, occipital cortex, and pons-medulla using PMOD software, with reference to an MRI template as described previously. Tissue TACs were generated as in the rat PET image analysis.

[9] = Concentration 10 (unit uncertain)
[10] = Concentration 1 (unit uncertain)
[11] = SRTM, cerebellum as reference region

Structure (SMILES): COc1ccc(N2C(=O)CCc3cc(OCCCN4CCC[C@H]4C)ccc32)cc1 [TASP0390136, 1-(4-methoxyphenyl)-6-{3-[(2R)-2-methylpyrrolidin-1-yl]propoxy}-3,4-dihydroquinolin-2(1H)-one]
- logD [1]: 1.36
- % Inhibition [2, 9]: -25%
- % Inhibition [3, 9]: 23%
- % Inhibition [4, 9]: 11%
- % Inhibition [5, 9]: 5%
- % Inhibition [6, 9]: -11%

Structure (SMILES): COc1ccc(N2C(=O)CCc3cc(OC4CCN(C5CCC5)CC4)ccc32)cn1 [TASP0410457, 6-[(1-Cyclobutylpiperidin-4-yl)oxy]-1-(6-methoxypyridin-3-yl)-3,4-dihydroquinolin-2(1H)-one]
- logD [1]: 1.79
- % Inhibition [2, 9]: 25%
- % Inhibition [3, 9]: 1%
- % Inhibition [4, 9]: -6%
- % Inhibition [5, 9]: 17%
- % Inhibition [6, 9]: -12%

Structure (SMILES): COc1ccc(N2C(=O)CCc3cc(OC4CCN(C5CCC5)CC4)ccc32)cc1 [TASP0434988, 6-[(1-cyclobutylpiperidin-4-yl)oxy]-1-(4-methoxyphenyl)-3,4-dihydroquinolin-2(1H)-one]
- logD [1]: 2.22
- % Inhibition [2, 10]: 3%
- % Inhibition [3, 10]: 16%
- % Inhibition [4, 10]: -12%
- % Inhibition [5, 10]: -12%
- % Inhibition [6, 10]: 4%

Structure (SMILES): [11CH3]Oc1ccc(N2C(=O)CCc3cc(OC4CCN(C5CCC5)CC4)ccc32)cn1 [[^11C]TASP0410457]
- BPND, Hippocampus [7, 11]: 0.53 ± 0.06
- BPND, Striatum [7, 11]: 1.26 ± 0.12
- cerebellar SUV at 15 min after radioligand injection ([7]; baseline): 0.64 ± 0.13
- peak SUV, cerebellum ([7]; bolus intravenous, baseline): ~1.2
- peak SUV, hippocampus ([7]; bolus intravenous, baseline): around 1.5
- peak SUV, striatum ([7]; bolus intravenous, baseline): ~2.0
- time for specific binding to reach a pseudo-equilibrium state ([7]; target-to-reference ratios, after intravenous injection): ≤ 15 min
- cerebellar SUV at 15 min after radioligand injection ([7]; thioperamide predosing 10 mg/kg): 0.47 ± 0.09
- peak SUV in the striatum ([8]; another monkey in a conscious condition (additional PET study)): 3.0
- time of peak brain uptake after the injection ([8]; conscious monkey PET): ≤ 30 min
- peak SUV in the striatum ([8]; first conscious monkey): 3.4
